Data: patent US10800791B2, “Triazole ACC inhibitors and uses thereof” (Gilead Apollo, LLC, priority 2015, dated 2020)
Converted amounts (≈) assume the structure as drawn. Where two headings read alike, the source gives them in different places.

Tests used:
[1] = system: C. albicans; assay: Antifungal Activity Assay (broth microtiter MIC), C. albicans; type: cell-based, Candida albicans; details: Candida albicans, ATCC90028, 48 h
Method in brief: (§1)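 Susceptibility was determined by CLSI M27-A3 broth microdilution in RPMI 1640 buffered with MOPS. Growth inhibition was scored visually after 48 h.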

[2] = system: C. parapsilosis; assay: Antifungal Activity Assay (broth microtiter MIC), C. parapsilosis; type: cell-based, Candida parapsilosis; details: Lodderomyces parapsilosis, ATCC22019, 48 h
Method in brief: as §1

[3] = target: human (hACC2) (Homo sapiens, UniProt O00763); assay: In vitro ACC inhibition assay (ADP-Glo), hACC2; type: biochemical; details: 5 nM ACC2, 20 μM ATP, 20 μM acetyl-CoA
human (hACC2), sequence (O00763 whole entry): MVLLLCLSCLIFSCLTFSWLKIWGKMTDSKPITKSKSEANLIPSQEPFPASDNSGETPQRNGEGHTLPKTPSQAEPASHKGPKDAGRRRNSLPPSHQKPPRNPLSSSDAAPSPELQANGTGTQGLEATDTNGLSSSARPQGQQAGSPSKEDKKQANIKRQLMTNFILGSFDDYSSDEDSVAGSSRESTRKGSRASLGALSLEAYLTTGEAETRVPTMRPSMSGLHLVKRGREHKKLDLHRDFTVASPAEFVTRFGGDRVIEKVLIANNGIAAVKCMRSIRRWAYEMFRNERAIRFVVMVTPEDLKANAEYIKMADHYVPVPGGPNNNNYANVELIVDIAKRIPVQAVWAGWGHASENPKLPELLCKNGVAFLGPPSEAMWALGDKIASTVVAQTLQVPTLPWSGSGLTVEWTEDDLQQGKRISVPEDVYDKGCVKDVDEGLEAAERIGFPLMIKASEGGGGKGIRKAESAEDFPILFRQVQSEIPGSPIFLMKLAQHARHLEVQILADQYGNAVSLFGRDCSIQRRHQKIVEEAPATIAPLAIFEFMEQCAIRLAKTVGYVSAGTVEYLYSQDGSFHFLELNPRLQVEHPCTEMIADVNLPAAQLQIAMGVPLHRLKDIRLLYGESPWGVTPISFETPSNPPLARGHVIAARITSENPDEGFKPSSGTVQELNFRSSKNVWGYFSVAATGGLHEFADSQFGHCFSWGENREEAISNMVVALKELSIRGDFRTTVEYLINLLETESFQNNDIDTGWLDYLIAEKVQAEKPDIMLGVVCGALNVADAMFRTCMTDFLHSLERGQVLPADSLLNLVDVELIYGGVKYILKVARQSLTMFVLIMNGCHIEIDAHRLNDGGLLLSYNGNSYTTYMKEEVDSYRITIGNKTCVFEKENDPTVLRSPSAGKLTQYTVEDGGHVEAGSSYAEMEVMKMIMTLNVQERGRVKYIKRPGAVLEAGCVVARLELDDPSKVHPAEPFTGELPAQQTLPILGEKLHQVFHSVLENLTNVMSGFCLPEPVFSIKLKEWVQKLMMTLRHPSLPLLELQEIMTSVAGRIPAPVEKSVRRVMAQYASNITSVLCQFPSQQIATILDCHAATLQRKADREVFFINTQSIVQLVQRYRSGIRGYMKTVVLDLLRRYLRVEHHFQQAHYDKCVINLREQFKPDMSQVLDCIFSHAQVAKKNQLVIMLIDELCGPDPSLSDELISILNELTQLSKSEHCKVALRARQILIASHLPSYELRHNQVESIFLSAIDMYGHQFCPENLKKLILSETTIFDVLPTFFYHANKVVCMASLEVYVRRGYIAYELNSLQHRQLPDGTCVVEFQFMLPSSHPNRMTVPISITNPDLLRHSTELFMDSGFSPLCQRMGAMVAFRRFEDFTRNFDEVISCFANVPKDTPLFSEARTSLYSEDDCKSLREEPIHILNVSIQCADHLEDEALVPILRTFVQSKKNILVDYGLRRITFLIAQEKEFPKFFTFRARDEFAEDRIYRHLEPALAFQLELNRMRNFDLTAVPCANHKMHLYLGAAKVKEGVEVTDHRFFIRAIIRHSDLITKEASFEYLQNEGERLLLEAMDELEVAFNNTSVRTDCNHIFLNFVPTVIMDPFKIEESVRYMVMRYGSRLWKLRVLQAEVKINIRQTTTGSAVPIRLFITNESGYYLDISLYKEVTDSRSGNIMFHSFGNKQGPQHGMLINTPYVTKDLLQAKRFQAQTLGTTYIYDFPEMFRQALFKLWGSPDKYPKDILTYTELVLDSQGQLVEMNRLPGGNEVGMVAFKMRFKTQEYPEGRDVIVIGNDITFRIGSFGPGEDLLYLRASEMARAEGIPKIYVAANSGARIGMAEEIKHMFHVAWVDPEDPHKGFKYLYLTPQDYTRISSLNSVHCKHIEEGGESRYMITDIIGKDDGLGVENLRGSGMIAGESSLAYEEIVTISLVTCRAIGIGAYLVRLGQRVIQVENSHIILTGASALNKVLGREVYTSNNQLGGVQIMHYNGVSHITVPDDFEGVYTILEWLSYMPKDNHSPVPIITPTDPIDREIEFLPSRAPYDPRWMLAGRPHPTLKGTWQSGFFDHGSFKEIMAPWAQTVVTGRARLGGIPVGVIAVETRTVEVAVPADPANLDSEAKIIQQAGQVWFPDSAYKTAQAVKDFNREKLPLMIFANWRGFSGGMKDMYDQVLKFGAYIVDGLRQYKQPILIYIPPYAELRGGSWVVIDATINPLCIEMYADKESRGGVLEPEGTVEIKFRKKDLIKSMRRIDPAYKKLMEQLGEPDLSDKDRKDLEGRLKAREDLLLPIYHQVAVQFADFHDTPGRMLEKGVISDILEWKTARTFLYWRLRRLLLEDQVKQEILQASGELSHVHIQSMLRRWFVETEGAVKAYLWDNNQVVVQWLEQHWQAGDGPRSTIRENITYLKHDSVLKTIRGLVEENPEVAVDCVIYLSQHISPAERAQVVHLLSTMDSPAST
Experimental: The detailed procedure is as follows. […] 10 μL ADP glo reagent was added. […] 20 μL kinase detection reagent was added.

[4] = target: fungal (fACC2) (UniProt Q00955); details: read-out: fACC2 (in vitro ACC2 Inhibition Assay, IC50), ADP-Glo, 5 nM ACC2, 20 μM ATP, 20 μM acetyl-CoA
fungal (fACC2), sequence (Q00955 whole entry): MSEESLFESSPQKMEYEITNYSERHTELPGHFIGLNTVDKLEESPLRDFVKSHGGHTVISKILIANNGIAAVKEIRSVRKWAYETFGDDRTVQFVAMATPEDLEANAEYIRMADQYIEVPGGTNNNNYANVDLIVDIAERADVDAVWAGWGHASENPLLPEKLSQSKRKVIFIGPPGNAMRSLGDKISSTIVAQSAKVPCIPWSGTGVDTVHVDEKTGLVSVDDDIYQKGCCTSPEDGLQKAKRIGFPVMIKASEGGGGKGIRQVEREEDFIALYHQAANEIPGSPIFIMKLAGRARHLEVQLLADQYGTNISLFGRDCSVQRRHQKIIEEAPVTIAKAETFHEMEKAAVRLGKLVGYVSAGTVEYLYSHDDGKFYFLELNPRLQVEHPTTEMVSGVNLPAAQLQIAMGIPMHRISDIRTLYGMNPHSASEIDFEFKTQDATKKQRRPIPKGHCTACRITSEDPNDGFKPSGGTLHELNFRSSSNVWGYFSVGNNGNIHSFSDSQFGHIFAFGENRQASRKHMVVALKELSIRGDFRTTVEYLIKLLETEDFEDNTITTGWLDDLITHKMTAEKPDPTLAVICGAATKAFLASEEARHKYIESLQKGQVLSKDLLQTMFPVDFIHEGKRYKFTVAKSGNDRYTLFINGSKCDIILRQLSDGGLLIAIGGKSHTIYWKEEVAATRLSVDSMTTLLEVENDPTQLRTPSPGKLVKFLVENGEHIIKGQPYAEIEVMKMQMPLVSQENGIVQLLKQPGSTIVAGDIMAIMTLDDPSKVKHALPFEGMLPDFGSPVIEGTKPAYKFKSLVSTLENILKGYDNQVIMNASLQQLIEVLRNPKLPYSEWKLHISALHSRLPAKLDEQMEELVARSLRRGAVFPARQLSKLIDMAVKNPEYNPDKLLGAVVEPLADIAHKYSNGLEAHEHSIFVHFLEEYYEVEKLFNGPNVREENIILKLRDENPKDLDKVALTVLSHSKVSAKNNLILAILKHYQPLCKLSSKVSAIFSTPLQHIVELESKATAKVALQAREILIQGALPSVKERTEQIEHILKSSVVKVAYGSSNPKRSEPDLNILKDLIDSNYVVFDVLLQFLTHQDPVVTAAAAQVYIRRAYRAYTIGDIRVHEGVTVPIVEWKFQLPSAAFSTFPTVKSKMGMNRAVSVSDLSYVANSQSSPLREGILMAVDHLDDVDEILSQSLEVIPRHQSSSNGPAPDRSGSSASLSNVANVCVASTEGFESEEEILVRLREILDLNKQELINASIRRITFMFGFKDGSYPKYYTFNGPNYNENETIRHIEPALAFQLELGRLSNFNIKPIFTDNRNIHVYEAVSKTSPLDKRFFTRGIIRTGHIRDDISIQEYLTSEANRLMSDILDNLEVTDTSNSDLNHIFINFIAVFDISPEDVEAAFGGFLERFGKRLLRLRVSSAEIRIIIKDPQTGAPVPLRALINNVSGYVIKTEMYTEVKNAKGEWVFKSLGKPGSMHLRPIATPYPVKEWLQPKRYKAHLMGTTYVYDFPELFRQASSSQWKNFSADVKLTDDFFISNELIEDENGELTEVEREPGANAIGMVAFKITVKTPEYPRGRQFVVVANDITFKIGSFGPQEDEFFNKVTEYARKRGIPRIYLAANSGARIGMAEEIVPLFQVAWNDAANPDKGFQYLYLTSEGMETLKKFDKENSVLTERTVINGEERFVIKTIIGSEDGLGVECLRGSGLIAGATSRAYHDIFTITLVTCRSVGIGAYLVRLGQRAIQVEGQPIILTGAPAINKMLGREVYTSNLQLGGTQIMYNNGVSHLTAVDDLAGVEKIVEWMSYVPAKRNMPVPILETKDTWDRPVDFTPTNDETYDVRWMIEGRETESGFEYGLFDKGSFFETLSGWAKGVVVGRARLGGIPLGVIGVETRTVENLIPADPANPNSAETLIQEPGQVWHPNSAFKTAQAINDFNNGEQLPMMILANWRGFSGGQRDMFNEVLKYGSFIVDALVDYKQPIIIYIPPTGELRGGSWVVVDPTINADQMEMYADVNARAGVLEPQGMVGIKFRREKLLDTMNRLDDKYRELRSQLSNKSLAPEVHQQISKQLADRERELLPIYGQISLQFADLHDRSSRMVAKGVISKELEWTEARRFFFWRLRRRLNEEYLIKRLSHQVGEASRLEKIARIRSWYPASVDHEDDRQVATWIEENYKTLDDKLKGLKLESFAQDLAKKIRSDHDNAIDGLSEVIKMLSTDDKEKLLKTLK

[5] = system: C. krusei; assay: Antifungal Activity Assay (broth microtiter MIC), C. krusei; type: cell-based, Candida krusei; details: Pichia kudriavzevii, ATCC6258, 48 h
Method in brief: as §1

[6] = Table 3a, ATCC 90028, 3 replicates, MIC recorded at 48 h, read-out: MIC, C. albicans ATCC 90028
[7] = Table 3b (additional results), ATCC 90028, 3 replicates, MIC recorded at 48 h, read-out: MIC, C. albicans ATCC 90028
[8] = Table 3a, ATCC 22019, 3 replicates, MIC recorded at 48 h, read-out: MIC, C. parapsilosis ATCC 22019
[9] = Table 3b (additional results), ATCC 22019, 3 replicates, MIC recorded at 48 h, read-out: MIC, C. parapsilosis ATCC 22019
[10] = Table 3a, ATCC 6258, 3 replicates, MIC recorded at 48 h, read-out: MIC, C. krusei ATCC 6258
[11] = Table 3b (additional results), ATCC 6258, 3 replicates, MIC recorded at 48 h, read-out: MIC, C. krusei ATCC 6258
[12] = read-out: MIC, C. albicans ATCC 90028, Table 3b (additional results), 3 replicates, MIC recorded at 48 h
[13] = read-out: MIC, C. parapsilosis ATCC 22019, Table 3b (additional results), 3 replicates, MIC recorded at 48 h
[14] = read-out: MIC, C. krusei ATCC 6258, Table 3b (additional results), 3 replicates, MIC recorded at 48 h

SMILES	MIC [1, 6]	MIC [1, 7]	MIC [2, 8]	MIC [2, 9]	IC50 ([3]; Table 2a)	IC50 ([3]; Table 2b, additional results)	IC50 ([4]; Table 2a)	IC50 ([4]; Table 2b, additional results)	MIC [5, 10]	MIC [5, 11]	MIC [1, 12]	MIC [2, 13]	MIC [5, 14]	MIC ([1]; read-out: MIC, C. albicans ATCC 90028, Table 3a, 3 replicates, MIC recorded at 48 h)	MIC ([2]; read-out: MIC, C. parapsilosis ATCC 22019, Table 3a, 3 replicates, MIC recorded at 48 h)	MIC ([5]; read-out: MIC, C. krusei ATCC 6258, Table 3a, 3 replicates, MIC recorded at 48 h)
COc1ccc(F)cc1[C@H](Cn1c(=O)n(C(C)(C)C(=O)O)c(=O)c2c(C)c(-n3nccn3)sc21)OC[C@@H](C)C#N [Compound I-147]	2.1 to 4 mg/L (≈ 3.68 to 7.01 µM)	2.01 to 4 mg/L (≈ 3.52 to 7.01 µM)	2.1 to 4 mg/L (≈ 3.68 to 7.01 µM)	> 4.01 mg/L	5 to 10 nM	5 to 10 nM	1 to 5 nM	1 to 5 nM	2.1 to 4 mg/L (≈ 3.68 to 7.01 µM)	> 4.01 mg/L	–	–	–	–	–	–
COc1ccc(F)cc1[C@H](Cn1c(=O)n(C(C)(C)C(=O)O)c(=O)c2c(C)c(-n3nccn3)sc21)OC[C@H](C)C#N [Compound I-148]	2.1 to 4 mg/L (≈ 3.68 to 7.01 µM)	2.01 to 4 mg/L (≈ 3.52 to 7.01 µM)	2.1 to 4 mg/L (≈ 3.68 to 7.01 µM)	> 4.01 mg/L	1 to 5 nM	1 to 5 nM	1 to 5 nM	1 to 5 nM	2.1 to 4 mg/L (≈ 3.68 to 7.01 µM)	> 4.01 mg/L	–	–	–	–	–	–
COc1ccc(F)cc1[C@H](Cn1c(=O)n(C(C)(C)C(=O)O)c(=O)c2c(C)c(-n3nccn3)sc21)OCC(C)(C)C#N [Compound I-149, 2-[1-[(2R)-2-(2-cyano-2,2-dimethylethoxy)-2-(5-fluoro-2-methoxyphenyl)ethyl]-5-methyl-2,4-dioxo-6-(2H-1,2,3-triazol-2-yl)-1H,2H,3H,4H-thieno[2,3-d]pyrimidin-3-yl]-2-methylpropanoic acid]	2.1 to 4 mg/L (≈ 3.59 to 6.84 µM)	1.01 to 2 mg/L (≈ 1.73 to 3.42 µM)	2.1 to 4 mg/L (≈ 3.59 to 6.84 µM)	> 4.01 mg/L	1 to 5 nM	1 to 5 nM	1 to 5 nM	1 to 5 nM	2.1 to 4 mg/L (≈ 3.59 to 6.84 µM)	> 4.01 mg/L	–	–	–	–	–	–
COc1ccc(F)cc1[C@H](Cn1c(=O)n(C(C)(C)C(N)=O)c(=O)c2c(C)c(-n3nccn3)sc21)OC[C@@H](C)C#N [Compound I-152]	2.1 to 4 mg/L (≈ 3.69 to 7.02 µM)	1.01 to 2 mg/L (≈ 1.77 to 3.51 µM)	2.1 to 4 mg/L (≈ 3.69 to 7.02 µM)	> 4.01 mg/L	1 to 5 nM	1 to 5 nM	0.4 to 1 nM	0.3 to 1 nM	2.1 to 4 mg/L (≈ 3.69 to 7.02 µM)	2.01 to 4 mg/L (≈ 3.53 to 7.02 µM)	–	–	–	–	–	–
COc1ccc(F)cc1[C@H](Cn1c(=O)n(C(C)(C)C(N)=O)c(=O)c2c(C)c(-n3nccn3)sc21)OC[C@H](C)C#N [Compound I-153]	2.1 to 4 mg/L (≈ 3.69 to 7.02 µM)	1.01 to 2 mg/L (≈ 1.77 to 3.51 µM)	2.1 to 4 mg/L (≈ 3.69 to 7.02 µM)	> 4.01 mg/L	1 to 5 nM	1 to 5 nM	0.4 to 1 nM	0.3 to 1 nM	2.1 to 4 mg/L (≈ 3.69 to 7.02 µM)	2.01 to 4 mg/L (≈ 3.53 to 7.02 µM)	–	–	–	–	–	–
COc1ccc(F)cc1[C@H](Cn1c(=O)n(C(C)(C)C(N)=O)c(=O)c2c(C)c(-n3nccn3)sc21)OCC(C)(C)C#N [Compound I-155]	0.25 to 1 mg/L (≈ 0.428 to 1.71 µM)	1.01 to 2 mg/L (≈ 1.73 to 3.43 µM)	2.1 to 4 mg/L (≈ 3.6 to 6.85 µM)	> 4.01 mg/L	5 to 10 nM	5 to 10 nM	1 to 5 nM	1 to 5 nM	1.1 to 2 mg/L (≈ 1.88 to 3.43 µM)	2.01 to 4 mg/L (≈ 3.44 to 6.85 µM)	–	–	–	–	–	–
COc1ccc(F)cc1[C@H](Cn1c(=O)n(C(C)(C)C(=O)O)c(=O)c2c(C)c(-n3nccn3)sc21)O[C@H]1CC[C@@H](C#N)CC1 [Compound I-156]	–	–	–	–	10 to 40 nM	10 to 40 nM	0.4 to 1 nM	0.3 to 1 nM	–	–	1.01 to 2 mg/L (≈ 1.65 to 3.28 µM)	2.01 to 4 mg/L (≈ 3.29 to 6.55 µM)	1.01 to 2 mg/L (≈ 1.65 to 3.28 µM)	–	–	–
COc1ccc(F)cc1[C@H](Cn1c(=O)n(C(C)(C)C(=O)O)c(=O)c2c(C)c(-n3nccn3)sc21)O[C@H]1CC[C@H](C#N)CC1 [Compound I-157]	–	1.01 to 2 mg/L (≈ 1.65 to 3.28 µM)	–	2.01 to 4 mg/L (≈ 3.29 to 6.55 µM)	5 to 10 nM	5 to 10 nM	1 to 5 nM	1 to 5 nM	–	1.01 to 2 mg/L (≈ 1.65 to 3.28 µM)	–	–	–	–	–	–
COc1ccc(F)cc1[C@H](Cn1c(=O)n(C(C)(C)C(=O)NC(C)C)c(=O)c2c(C)c(-n3nccn3)sc21)O[C@H]1CC[C@@H](C#N)CC1 [Compound I-158]	–	–	–	–	10 to 40 nM	10 to 40 nM	1 to 5 nM	1 to 5 nM	–	–	0.25 to 1 mg/L (≈ 0.384 to 1.53 µM)	0.25 to 1 mg/L (≈ 0.384 to 1.53 µM)	0.06 to 0.249 mg/L (≈ 0.0921 to 0.382 µM)	0.25 to 1 mg/L (≈ 0.384 to 1.53 µM)	1.1 to 2 mg/L (≈ 1.69 to 3.07 µM)	0.25 to 1 mg/L (≈ 0.384 to 1.53 µM)
